Target: T1, recombinant human NAE enzyme (Homo sapiens, UniProt Q8TBC4)
T1 construct: His (N); made in house; host or cells: Sf9 insect cells (baculovirus, Bac-to-Bac)
T1 sequence (Q8TBC4 1-463): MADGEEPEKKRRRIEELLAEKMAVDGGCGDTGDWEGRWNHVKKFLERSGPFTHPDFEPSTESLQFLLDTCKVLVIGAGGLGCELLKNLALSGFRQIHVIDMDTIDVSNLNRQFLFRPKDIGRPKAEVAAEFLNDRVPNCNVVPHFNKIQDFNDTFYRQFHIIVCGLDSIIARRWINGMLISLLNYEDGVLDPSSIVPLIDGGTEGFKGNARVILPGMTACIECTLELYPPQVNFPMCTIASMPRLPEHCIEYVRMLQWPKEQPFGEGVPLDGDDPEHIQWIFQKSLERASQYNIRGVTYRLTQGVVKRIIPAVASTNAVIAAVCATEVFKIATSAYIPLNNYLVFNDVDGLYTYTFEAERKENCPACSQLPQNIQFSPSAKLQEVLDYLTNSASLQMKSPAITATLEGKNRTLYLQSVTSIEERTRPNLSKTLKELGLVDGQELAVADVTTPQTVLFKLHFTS
T1 sequence (Q13564 1-534 partner): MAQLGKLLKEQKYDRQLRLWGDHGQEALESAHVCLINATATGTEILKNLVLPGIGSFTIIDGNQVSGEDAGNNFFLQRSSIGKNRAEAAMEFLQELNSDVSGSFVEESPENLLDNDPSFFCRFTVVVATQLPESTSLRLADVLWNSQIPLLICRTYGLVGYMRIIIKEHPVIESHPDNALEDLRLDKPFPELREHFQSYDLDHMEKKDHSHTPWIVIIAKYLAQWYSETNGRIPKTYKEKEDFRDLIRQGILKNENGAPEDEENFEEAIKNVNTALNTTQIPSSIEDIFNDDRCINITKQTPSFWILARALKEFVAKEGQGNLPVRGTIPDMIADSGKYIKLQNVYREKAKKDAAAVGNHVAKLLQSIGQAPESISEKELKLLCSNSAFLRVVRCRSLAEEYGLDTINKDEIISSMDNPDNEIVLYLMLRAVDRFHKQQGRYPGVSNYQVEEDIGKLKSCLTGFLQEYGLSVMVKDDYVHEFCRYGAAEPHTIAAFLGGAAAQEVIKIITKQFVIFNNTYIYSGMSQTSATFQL
Test: Nedd8-Activating Enzyme (NAE) HTRF Assay
Assay type: biochemical
Conditions: 20 μM ATP
Procedure: Following manufacturer instructions, baculoviruses were generated with the Bac-to-Bac Expression System (Invitrogen) for the following proteins: untagged NAEα (APPBP1; NP_003896.1), N-terminally His-tagged NAEJ (UBE1C; NP_003959.3), untagged SAEα (SAE1; NP_005491.1), N-terminally His-tagged SAE3 (UBA2; NP_005490.1), N-terminally His-tagged murine UAE (UBE1X; NP_033483). NAEα/His-NAEβ and SAEα/His-SAEβ complexes were generated by co-infection of Sf9 cells, which were harvested after 48 hours. His-mUAE was generated by single infection of Sf9 cells and harvested after 72 hours. Expressed proteins were purified by affinity chromatography (Ni-NTA agarose, Qiagen) using standard buffers. Nedd8-Activating Enzyme (NAE) HTRF Assay. The NAE enzymatic reaction totaled 50 μL and contained 50 mM HEPES (pH 7.5), 0.05% BSA, 5 mM MgCl2, 20 μM ATP, 250 μM GSH, 0.01 μM Ubc12-GST, 0.075 μM Nedd8-Flag and 0.20 nM recombinant human NAE enzyme. The enzymatic reaction mixture, with and without compound inhibitor, was incubated at room temperature 24° C. for 105 minutes in a 384-well plate before termination with 25 μL of Stop/Detection buffer (0.1M HEPES pH 7.5, 0.05% Tween20, 20 mM EDTA, 410 mM KF, 0.53 nM Europium-Cryptate labeled monoclonal anti-FLAG M2 antibody (CisBio International) and 8.125 μg/mL PHYCOLINK goat anti-GST allophycocyanin (XL-APC) antibody (Prozyme)). After incubation for 1 hour at 24° C., quantification of the FRET was performed on the Analyst™ HT 96.384 (Molecular Devices).

Row | Structure (SMILES) | IC50 (bound given in nM) | IC50 (bound given in μM)
1 | NS(=O)(=O)OC[C@@H]1C[C@@H](Nc2ncnc3[nH]c(-c4ccccc4-c4ccccc4)nc23)C[C@@H]1O [Compound I-48, {(1S,2S,4R)-4-[(8-biphenyl-2-yl-9H-purin-6-yl)amino]-2-hydroxycyclopentyl}-methyl sulfamate] | > 500 nM | < 10000 nM
2 | CN(C)C[C@H]1Cc2ccccc2[C@H]1Nc1cc(O[C@@H]2C[C@@H](COS(N)(=O)=O)[C@@H](O)C2)ncn1 [Compound I-53, ((1S,2S,4R)-4-{[6-({(1S,2R)-2-[(dimethylamino)methyl]-2,3-dihydro-1H-inden-1-yl}amino)pyrimidin-4-yl]oxy}-2-hydroxycyclopentyl)methyl sulfamate] | > 500 nM | < 10000 nM
3 | NS(=O)(=O)OC[C@@H]1C[C@@H](Nc2cc(N[C@H]3CCc4ccccc43)nc(=O)[nH]2)C[C@@H]1O [Compound I-54, [(1S,2S,4R)-4-({6-[(1S)-2,3-dihydro-1H-inden-1-ylamino]-2-oxo-2,3-dihydropyrimidin-4-yl}amino)-2-hydroxycyclopentyl]methyl sulfamate] | > 500 nM | < 10000 nM
4 | NS(=O)(=O)OC[C@H]1C[C@@H](O)[C@H](Nc2cc(N[C@H]3CCc4ccccc43)ncn2)C1 [Compound I-58, [(1R,3R,4R)-3-({6-[(1S)-2,3-dihydro-1H-inden-1-ylamino]pyrimidin-4-yl}-amino)-4-hydroxycyclopentyl]methyl sulfamate] |  | > 10000 nM
5 | NS(=O)(=O)OC[C@@H]1C[C@@H](Oc2cc(N3CCc4ccccc4C3)ncn2)C[C@@H]1O [Compound I-61, ((1S,2S,4R)-4-{[6-(3,4-dihydroisoquinolin-2(1H)-yl)pyrimidin-4-yl]oxy}-2-hydroxycyclopentyl)methyl sulfamate] |  | > 10000 nM
6 | CN(C)C(=O)[C@H]1Cc2ccccc2[C@H]1Nc1cc(O[C@@H]2C[C@@H](COS(N)(=O)=O)[C@@H](O)C2)ncn1 [Compound I-66, ((1S,2S,4R)-4-{[6-({(1S,2S)-2-[(dimethylamino)carbonyl]-2,3-dihydro-1H-inden-1-yl}amino)pyrimidin-4-yl]oxy}-2-hydroxycyclopentyl)methyl sulfamate] | > 500 nM | < 10000 nM
7 | COc1cccc(-c2nc3c(N[C@@H]4C[C@@H](COS(N)(=O)=O)[C@@H](O)C4)ncnc3[nH]2)c1OC [Compound I-67, ((1S,2S,4R)-4-{[8-(2,3-dimethoxyphenyl)-9H-purin-6-yl]amino}-2-hydroxycyclopentyl)methyl sulfamate] | ≤ 500 nM | 
8 | NS(=O)(=O)OC[C@@H]1C[C@@H](Nc2ncnc3[nH]c(-c4ccccc4OCc4ccccc4)nc23)C[C@@H]1O [Compound I-68, [(1S,2S,4R)-4-({8-[2-(benzyloxy)phenyl]-9H-purin-6-yl}amino)-2-hydroxycyclopentyl]methyl sulfamate] | ≤ 500 nM | 
9 | NS(=O)(=O)OC[C@@H]1C[C@@H](Nc2ncnc3[nH]c(-c4ccccc4)nc23)C[C@@H]1O [Compound I-69, {(1S,2S,4R)-2-hydroxy-4-[(8-phenyl-9H-purin-6-yl)amino]cyclopentyl}methyl sulfamate] | ≤ 500 nM | 
10 | CC1(C)C[C@H](Nc2ncnc(N[C@@H]3C[C@@H](COS(N)(=O)=O)[C@@H](O)C3)c2F)c2ccccc21 [Compound I-71, {(1S,2S,4R)-4-[(6-{[(1S)-3,3-dimethyl-2,3-dihydro-1H-inden-1-yl]amino}-5-fluoropyrimidin-4-yl)amino]-2-hydroxycyclopentyl}methyl sulfamate] | ≤ 500 nM | 
11 | NS(=O)(=O)OC[C@@H]1C[C@@H](Oc2ncnc3nc(-c4ccnc5cc(Cl)ccc45)[nH]c23)C[C@@H]1O [Compound I-73, ((1S,2S,4R)-4-{[8-(7-chloroquinolin-4-yl)-7H-purin-6-yl]oxy}-2-hydroxycyclopentyl)methyl sulfamate] | ≤ 500 nM | 
12 | NS(=O)(=O)OC[C@@H]1C[C@@H](Nc2ncnc3[nH]c(-c4cccc5ccccc45)cc23)C[C@@H]1O [Compound I-74, ((1S,2S,4R)-2-hydroxy-4-{[6-(1-naphthyl)-7H-pyrrolo[2,3-d]pyrimidin-4-yl]amino}cyclopentyl)methyl sulfamate] | ≤ 500 nM | 

Continued, values first:

Row | IC50 (bound given in nM) | IC50 (bound given in μM) | Structure (SMILES)
13 | ≤ 500 nM |  | CN(c1ncnc2[nH]c(-c3cccc4ccccc34)nc12)[C@@H]1C[C@@H](COS(N)(=O)=O)[C@@H](O)C1 [Compound I-46, ((1S,2S,4R)-2-hydroxy-4-{methyl[8-(1-naphthyl)-9H-purin-6-yl]amino}-cyclopentyl)methyl sulfamate]
14 | ≤ 500 nM |  | CO[C@H]1Cc2ccccc2[C@H]1Nc1cc(N[C@@H]2C[C@@H](COS(N)(=O)=O)[C@@H](O)C2)ncn1 [Compound I-47, {(1S,2S,4R)-2-hydroxy-4-[(6-{[(1R,2S)-2-methoxy-2,3-dihydro-1H-inden-1-yl]-amino}pyrimidin-4-yl)amino]cyclopentyl}methyl sulfamate]
15 | ≤ 500 nM |  | NS(=O)(=O)OC[C@@H]1C[C@@H](Nc2ncnc3[nH]c(-c4cccc5ccccc45)nc23)C[C@@H]1O [Compound I-49, ((1S,2S,4R)-2-hydroxy-4-{[8-(1-naphthyl)-9H-purin-6-yl]amino}cyclopentyl)-methyl sulfamate]
16 | ≤ 500 nM |  | CO[C@H]1Cc2ccccc2[C@H]1Nc1ncnc(N[C@@H]2C[C@H](COS(N)(=O)=O)[C@@H](O)[C@H]2O)n1 [Compound I-55, {(1R,2R,3S,4R)-2,3-dihydroxy-4-[(4-{[(1R,2S)-2-methoxy-2,3-dihydro-1H-inden-1-yl]amino}-1,3,5-triazin-2-yl)amino]cyclopentyl}methyl sulfamate]
17 | ≤ 500 nM |  | NS(=O)(=O)OC[C@@H]1C[C@@H](Nc2c(Cl)cnc3[nH]c(-c4cccc5ccccc45)nc23)C[C@@H]1O [Compound I-56, ((1S,2S,4R)-4-{[6-chloro-2-(1-naphthyl)-3H-imidazo[4,5-b]pyridin-7-yl]amino}-2-hydroxycyclopentyl)methyl sulfamate]
18 | ≤ 500 nM |  | NS(=O)(=O)OC[C@@H]1C[C@@H](Nc2ncnc3[nH]c(-c4cccc(Cl)c4)nc23)C[C@@H]1O [Compound I-60, ((1S,2S,4R)-4-{[8-(3-chlorophenyl)-9H-purin-6-yl]amino}-2-hydroxycyclopentyl)methyl sulfamate]
19 | ≤ 500 nM |  | NS(=O)(=O)OC[C@@H]1C[C@@H](Nc2ncnc3[nH]c(-c4ccccc4OC(F)(F)F)nc23)C[C@@H]1O [Compound I-62, [(1S,2S,4R)-2-hydroxy-4-({8-[2-(trifluoromethoxy)phenyl]-9H-purin-6-yl}-amino)cyclopentyl]methyl sulfamate]
20 | ≤ 500 nM |  | NS(=O)(=O)OC[C@@H]1C[C@@H](Oc2ncnc3[nH]c(-c4ccccc4)nc23)C[C@@H]1O [Compound I-63, {(1S,2S,4R)-2-hydroxy-4-[(8-phenyl-9H-purin-6-yl)oxy]cyclopentyl}methyl sulfamate]
21 | ≤ 500 nM |  | CN(C)c1ccc(-c2nc3c(N[C@@H]4C[C@@H](COS(N)(=O)=O)[C@@H](O)C4)ncnc3[nH]2)c2ccccc12 [Compound I-64, [(1S,2S,4R)-4-({8-[4-(dimethylamino)-1-naphthyl]-9H-purin-6-yl}amino)-2-hydroxycyclopentyl]methyl sulfamate]
22 | ≤ 500 nM |  | CC1(C)C[C@H](Nc2cc(N[C@@H]3C[C@@H](COS(N)(=O)=O)[C@@H](O)C3)ncn2)c2ccccc21 [Compound I-65, {(1S,2S,4R)-4-[(6-{[(1S)-3,3-dimethyl-2,3-dihydro-1H-inden-1-yl]amino}-pyrimidin-4-yl)amino]-2-hydroxycyclopentyl}methyl sulfamate]

From patent publication US9718788B2, “Heteroaryl compounds useful as inhibitors of E1 activating enzymes” (MILLENNIUM PHARMACEUTICALS, INC., priority 2006, dated 2017)
